The record followed here is ChEMBL document CHEMBL1156210, “Discovery of tertiary sulfonamides as potent liver X receptor antagonists” (J Med Chem, 2010).

For assay [1], the target named is T1, Oxysterols receptor LXR-alpha (Homo sapiens, UniProt Q13133).
T1 sequence (Q13133 whole entry): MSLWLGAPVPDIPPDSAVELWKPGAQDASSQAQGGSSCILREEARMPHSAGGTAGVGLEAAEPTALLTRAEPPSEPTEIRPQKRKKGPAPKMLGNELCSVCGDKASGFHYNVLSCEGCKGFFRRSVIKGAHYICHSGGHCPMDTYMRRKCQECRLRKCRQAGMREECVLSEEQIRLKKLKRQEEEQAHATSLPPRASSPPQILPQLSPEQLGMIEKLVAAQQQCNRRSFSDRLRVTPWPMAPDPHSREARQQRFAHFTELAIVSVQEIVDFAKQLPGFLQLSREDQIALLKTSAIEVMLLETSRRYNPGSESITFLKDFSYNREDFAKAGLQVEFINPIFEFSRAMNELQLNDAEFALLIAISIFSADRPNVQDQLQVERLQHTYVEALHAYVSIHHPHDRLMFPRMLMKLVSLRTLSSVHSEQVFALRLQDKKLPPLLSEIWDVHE
The assay can be described thus: (§1) Agonist activity at LXRalpha ligand binding domain-mediated transcriptional activity in african green monkey CV1 cells co-transfected with Gal4-SRC1 by luciferase reporter assay. The format is cell-based, CV-1.

In assay [2] the test system is HepG2. The assay can be described thus: Inhibition of basal triglyceride level in human HepG2 cells.
The target in assay [3] is T2, Oxysterols receptor LXR-beta (Homo sapiens, UniProt P55055). Particulars: CV-1.
T2 sequence (P55055 whole entry): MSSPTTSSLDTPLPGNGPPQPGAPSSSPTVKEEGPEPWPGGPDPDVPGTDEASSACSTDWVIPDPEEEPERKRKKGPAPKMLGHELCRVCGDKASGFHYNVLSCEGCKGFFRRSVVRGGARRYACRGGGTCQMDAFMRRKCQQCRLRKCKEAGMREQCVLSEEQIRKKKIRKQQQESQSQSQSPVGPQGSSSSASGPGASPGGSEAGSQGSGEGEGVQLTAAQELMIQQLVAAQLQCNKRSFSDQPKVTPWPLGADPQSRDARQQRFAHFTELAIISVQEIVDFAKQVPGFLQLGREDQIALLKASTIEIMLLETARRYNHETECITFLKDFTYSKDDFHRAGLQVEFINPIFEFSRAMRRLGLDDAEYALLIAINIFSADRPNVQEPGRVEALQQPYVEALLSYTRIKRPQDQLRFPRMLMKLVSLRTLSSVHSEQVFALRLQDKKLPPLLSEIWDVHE
Assay [4] addresses T3, Oxysterols receptor LXR-alpha (Homo sapiens) (UniProt Q13133).
T3 sequence (whole entry): T1 sequence (Q13133 whole entry)
The assay is described as §1. Particulars: CV-1. In kind it is cell-based.

For assay [5], the system named is HepG2. Kind of assay: Inhibition of GW-3965-induced SREBP-1c expression in human HepG2 cells. In kind it is functional, cell-based.
Assay [6] concerns the target T2, Oxysterols receptor LXR-beta. The assay can be described thus: Displacement of [N-methyl-3H]T1317 from human biotinylated LXRbeta LBD after 3 hrs by LEAD seeker binding assay.
Assay [7] relates to HepG2. Kind of assay: Inhibition of SREBP-1c expression in human HepG2 cells. The format is functional, cell-based.
Another assay has as its system THP-1. Kind of assay: Inhibition of ABCA1 expression in human THP1 cells. The format is functional, cell-based.
In assay [8] the target is T2, Oxysterols receptor LXR-beta. Kind of assay: Agonist activity at LXRbeta ligand binding domain-mediated transcriptional activity in african green monkey CV1 cells co-transfected with Gal4-SRC1 by luciferase reporter assay. The format is cell-based, CV-1.

Active and inactive are the calls of the source. The calls are words filed in the database; no cut-off is given here.

As to `Cc1ccccc1S(=O)(=O)N(Cc1ccc(-c2cccc(S(C)(=O)=O)c2)cc1)Cc1c(F)cccc1Cl`, the midpoint of the response in assay [1], the EC50, lay at 12.6 nM.

In assay [1], `CS(=O)(=O)c1cccc(-c2ccc(CN(Cc3c(F)cccc3Cl)S(=O)(=O)c3ccccc3)cc2)c1` showed an EC50 of 6.31 nM.

On to `Cc1cc(C)c(S(=O)(=O)N(Cc2ccc(-c3cccc(S(C)(=O)=O)c3)cc2)Cc2ccc(C(F)(F)F)o2)c(C)c1`, for which the outcome with HepG2 [2] was Active. Besides, the pEC50 result in assay [3] and in [4] was “inactive” each time. Moreover, the Activity result in the assay on HepG2 [5] is “Dose-dependent effect”. Besides, the IC50 is 31.6 nM in assay [6], < 100 nM in the assay on HepG2 [7] and < 100 nM in the assay on THP-1.

Take `O=C(c1ccccc1)N(Cc1ccc(-c2ccccc2)cc1)Cc1ccc(F)cc1Cl`: the IC50 in assay [6] is > 10000 nM.

For `Fc1ccc(CN(Cc2ccccc2)Cc2ccc(-c3ccccc3)cc2)c(Cl)c1`, in assay [6], the IC50 is > 10000 nM.

Turning to `Cc1cc(C)c(S(=O)(=O)N(Cc2ccc(-c3cccc(S(C)(=O)=O)c3)cc2)Cc2ccc(F)cc2Cl)c(C)c1`, the response in assay [1] was half-maximal at 126 nM (EC50).

`Cn1cnc(S(=O)(=O)N(Cc2ccc(-c3cccc(S(C)(=O)=O)c3)cc2)Cc2c(F)cccc2Cl)c1` gave an EC50 in assay [1] of 79.4 nM.

In assay [1], `CS(=O)(=O)c1cccc(-c2ccc(CN(Cc3ccc(F)cc3Cl)S(=O)(=O)c3ccccc3)cc2)c1` gave an EC50 of 10 nM.

For the compound `O=C(O)Cc1cccc(OCCCN(Cc2cccc(C(F)(F)F)c2Cl)CC(c2ccccc2)c2ccccc2)c1`, the half-maximal inhibitory concentration (IC50) in [6] is 19.9 nM. Further, the EC50 in assay [8] was found to be 100 nM.

Turning to `CS(=O)(=O)c1cccc(-c2ccc(CN(Cc3c(F)cccc3Cl)S(=O)(=O)C3CC3)cc2)c1`, in [1], a half-maximal response (EC50) required 100 nM.

In assay [1], `Cc1cc(C)c(S(=O)(=O)N(Cc2ccc(-c3cccc(S(C)(=O)=O)c3)cc2)Cc2c(F)cccc2Cl)c(C)c1` showed a 50% effective concentration (EC50) of 79.4 nM.
